The IC50 is the point on the concentration scale where inhibition reaches its midpoint.

Changes are numbered by the printed parent chain.

This note sets out measurements from patent publication US6852744B2, “Pyrrolidine derivatives and their use as chymase inhibitor” (Dainippon Pharmaceutical Co., Ltd., priority 2000, dated 2005).

The target of data set [1] is T1, human chymase (Homo sapiens, UniProt P23946).
T1 construct: made in house; host or cells: COS7 cells (transient transfection)
T1 sequence (P23946 22-247): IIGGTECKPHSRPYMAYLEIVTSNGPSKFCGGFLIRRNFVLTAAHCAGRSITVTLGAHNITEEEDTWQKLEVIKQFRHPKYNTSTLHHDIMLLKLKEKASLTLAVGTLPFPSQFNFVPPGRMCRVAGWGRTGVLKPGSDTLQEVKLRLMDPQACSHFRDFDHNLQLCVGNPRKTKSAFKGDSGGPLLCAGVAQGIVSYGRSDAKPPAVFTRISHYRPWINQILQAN
Nature of the data set: Human chymase inhibitory activity (in vitro, angiotensin I substrate). The format is biochemical. Conditions: recombinant human chymase (COS7 cells); substrate angiotensin I; 37° C.; read-out: Human Chymase Inhibition (IC50:nM). As to the method: The inhibitory activities of the compounds on monkey chymase and human chymase were tested in vitro. The test compounds are as shown by Compound Nos. in Tables 13 and 14.
Preparation of Human Chymase
Human chymase was produced in mammalian cells using a recombinant DNA technique.
Construction of a human prochymase expression plasmid was performed in the following manner. Briefly, single stranded cDNA was synthesized from human heart mRNA (Clontech Laboratories, Inc.). Polymerase chain reaction amplification was carried out using the cDNA as a template and appropriate pairs of primers. The primer sequences were determined based on the human preprochymase. The amplified product was cloned into the plasmid pUC18, and then recloned into the plasmid pBluescript II KS(+) (Stratagene). Finally, the DNA fragment carrying the entire protein-coding sequences of the human preprochymase was inserted to a transient expression vector by the usual method to yield the human prochymase expression plasmid.
Transfection of COS7 cells with the human prochymase expression plasmid was carried out using the FuGene™ 6 transfection reagent (Boehringer Mannheim). About 7 hours after exposure to DNA, the culture medium was changed to a serum-free one. The culture supernatant was collected after 2 days culture.
Human prochymase was purified from the culture supernatant using a heparin actigel column as described above in the preparation of monkey chymase.
In order to produce active chymase, the human prochymase was incubated with dipeptidylpeptidase I (Sigma). The resultant active human chymase was purified using a heparin actigel column as described above. The active human chymase was eluted with 0.01 mol/1000 ml sodium phosphate buffer pH 7.4 containing 2 mol/1000 ml NaCl.
Measurement of Chymase Inhibitory Activity (In Vitro Assay)
The chymase inhibitory activities of compounds I-A of this invention were measured according to the following method. Briefly, the purified monkey or human chymase was diluted to an appropriate concentration with 0.01 mol/1000 ml sodium phosphate buffer, pH 7.4, containing 2 mol/1000 ml KCl and 0.1% Nonidet P-40 and used as enzyme solution. Angiotensin I (Peptide Institute Inc.) was diluted with water to 5 mg/ml and used as substrate solution. Test compounds were serially diluted with 10% DMSO. […] After pre-incubation of the mixture at 37° C., 20 μl of the substrate solution was added to the enzyme-test compound mixture and the new mixture was incubated at 37° C. Fifty μl of 30% trichloroacetic acid solution was finally added to stop the enzymatic reaction.
The amount of L-His-L-Leu was measured as angiotensin II produced by the enzymatic reaction. Briefly, 10 μl of the reaction mixture and 10 μl of 1% orthophthalaldehyde solution dissolved in methanol were mixed with 100 μl of 2 mol/1000 ml NaOH and kept at room temperature. The reaction was then stopped by adding 10 μl of 6 mol/1000 ml HCl. Finally, the fluorescence induced by the reaction was measured using in a photometer with an excitation wavelength of 355 nm and an emission wavelength of 460 nm. Chymase inhibitory activities of test compounds were expressed as 50% inhibitory concentration (IC50).

Data set [2] has as its system chymase-induced dye leakage. Nature of the data set: Skin permeability test: inhibition of vascular permeability (Evans Blue dye leakage). Format: in vivo. Conditions: male Hartley guinea pigs, 100 mg/kg orally 1 hour before intradermal injection of human chymase. Here is the method: Skin permeability test was carried out according to the following method. Briefly, male Hartley guinea pigs (350-460 g, Shizuoka Laboratory Animal Center, Japan) were anesthetized by intraperitoneal injection of Nembutal™ (30 mg/kg; Dainippon Pharmaceutical Co., Ltd., Japan). After shaving the guinea pigs dorsa, 50 μl of purified human chymase (Elastin Products Inc., USA) diluted with phosphate buffered saline (PBS) to a concentration of 1.8 units /55 μg protein/ml (1 unit of chymase represents the amount of chymase required to hydrolyze 1.0 μmole of N-benzoyl-L-tyrosine-ethyl ester (BTEE) per minute at 25° C.; pH 7.8) were injected intradermally into three dorsal sites of each animal. […] The amounts of dye leakage into the dorsal skins were measured according to the following method.
Briefly, the area around each injection site (16 mm diameter) was punched out from the inside of the skin, and the leaked dye was extracted by incubation of the punched skin in N,N-dimethylformamide (DMF, 3 ml) at 55° C. overnight. The absorbance of the dye extract was then measured using a spectrophotometer at a wavelength of 620 nm. […] The amount of chymase-induced dye leakage (ACDL) and the amount of solvent-induced dye leakage (ASDL) in each animal were calculated as the average of dye leakage from the three treated dorsal sites in each case. […]

Data set [3] is described as follows: in vivo. Particulars: male, ddy, mouse, po.
Procedure: Plasma levels of test compounds were measured in the following manner.
Briefly, test compounds were dissolved in DMSO to 100 mg/ml, and suspended with 0.5% tragacanth solution 1 mg/ml. Male ddy mice, weighing about 30 g, were orally administered the test compound solution. After one hour, blood was collected from the heart under anesthesia with Nembutal (Dainippon Pharmaceutical Co., Ltd.) and centrifuged to obtain plasma. The collected plasma (125 μl) was mixed with 10% DMSO (120 μl) and ethyl acetate (720 μl). After centrifugation, the ethyl acetate layer was collected and evaporated. The residue was dissolved and diluted serially as test samples with 10% DMSO. Chymase inhibitory activities of test samples were measured in the same manner as described in Experiment 1. In this chymase inhibitory assay of test samples, 0.1 mol/1000 ml sodium phosphate buffer, pH 7.4 contained 5 mmol/1000 ml ethylenediaminetetraacetic acid (EDTA) disodium salt, 0.77 mmol/1000 ml diisopropyl fluorophosphate (DFP) and 8 mmol/1000 ml dipyridyl. Plasma concentrations of test compounds were calculated from calibration curves.
The calibration curve was obtained in the following manner. Test compounds (0.06-60 ng) were added into the control plasma. The control plasma was treated in the same manner as for test samples. Finally, chymase inhibitory activities of the 10% DMSO-dissolved residues were measured and plotted against the amount of test compounds.
Data set [4] deals with T2, monkey chymase (Macaca fascicularis, UniProt P56435).
T2 construct: chymase was extracted from homogenized monkey cheek pouch and stomach; from tissue; host or cells: monkey cheek pouch and stomach
T2 sequence (P56435 22-247): T1 sequence (P23946 22-247) with F29S, A44V, E63K, D159Y, S201L, Q221K
Nature of the data set: Monkey chymase inhibitory activity (in vitro, angiotensin I substrate). Format: biochemical. Particulars: chymase purified from monkey cheek pouch and stomach; substrate angiotensin I; 37° C.; read-out: Monkey Chymase Inhibition (IC50:nM). In outline: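 Angiotensin I (substrate stock 5 mg/ml) is cleaved at 37° C by chymase purified from monkey cheek pouch and stomach, after compound pre-incubation, in pH 7.4 sodium phosphate buffer with KCl and Nonidet P-40. Trichloroacetic acid stops the reaction; L-His-L-Leu product is quantified after orthophthalaldehyde reaction.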

Data set [5] is described as follows: Toxicity study, 2 weeks oral. The format is in vivo. Particulars: five-week-old male ddy mice; orally once a day for 2 weeks; 30 and 300 mg/kg/day. Here is the method: Five-week-old male ddy mice were administered orally once a day for 2 weeks with the compound I-A-1 at dose levels of 30 and 300 mg/kg/day.

Turning to `Cc1nnsc1C(=O)N[C@H](C(=O)N1CCC[C@H]1C(=O)N[C@@H](Cc1csc2ccccc12)C(=O)C(F)(F)F)C(C)C` [I-A-20, N-[(1S)-2-((2S)-2-{N-[(1S)-1-(benzo[b]thiophen-3-ylmethyl)-3,3,3-trifluoro-2-oxopropyl]carbamoyl}pyrrolidinyl)-1-(methylethyl)-2-oxoethyl](4-methyl(1,2,3-thiadiazol-5-yl))carboxamide], the IC50 in data set [1] turned out to be 36 nM; in data set [4], 5.1 nM. Besides, the “Dye leakage inhibition rate (%)” value in data set [2] was determined as 59%. The compound further displayed a concentration at 1 h in data set [3] of 570 ng/mL.
On to `Cc1noc(C)c1C(=O)N[C@H](C(=O)N1CCC[C@H]1C(=O)N[C@@H](Cc1csc2ccccc12)C(=O)C(F)(F)F)C(C)C` [I-A-1, N-[(1S)-2-((2S)-2-{N-[(1S)-1-(benzo[b]thiophen-3-yl-methyl)-3,3,3-trifluoro-2-oxopropyl]carbamoyl}pyrrolidinyl)-1-(methylethyl)-2-oxoethyl](3,5-dimethylisoxazol-4-yl)carboxamide], for which the IC50 came to 55 nM in data set [1] and 3.8 nM in data set [4]. In data set [5], the “treatment-related finding (body weight, diet consumption, heart, liver, kidney weight, necropsy finding, hematology, blood chemistry)” value is given as “no treatment-related finding”. Besides, in data set [2], the “Dye leakage inhibition rate (%)” value came out at 34%. Moreover, in data set [3], the concentration at 1 h is 480 ng/mL.
Take `CC[C@H](NC(=O)c1c(C)noc1C)C(=O)N1CCC[C@H]1C(=O)N[C@@H](Cc1csc2ccccc12)C(=O)C(F)(F)F` [I-A-3, N-[(1S)-2-((2S)-2-{N-[(1S)-1-(benzo[b]thiophen-3-ylmethyl)-3,3,3-trifluoro-2-oxopropyl]carbamoyl}pyrrolidinyl)-1-ethyl-2-oxoethyl](3,5-dimethylisoxazol-4-yl)carboxamide]: the IC50 is 50 nM in data set [1] and 9.3 nM in data set [4]. The concentration at 1 h in data set [3] was found to be 320 ng/mL.
